Tests used:
[1] = test system: DIO mice; assay: Body weight in diet-induced obese; assay type: in vivo; details: DIO male mice
[2] = target: T1, GLP-1R (Homo sapiens, UniProt P43220); assay: GLP-1R activation, CRE-luciferase reporter gene assay in HEK 293 cells; assay type: cell-based
[3] = test system: ERα and ERβ; assay type: cell-based, human
[4] = test system: MCF-7 xenografts; assay: Tumor growth in MCF-7 xenograft OVX nude mice; assay type: in vivo; details: for volume of harvested tumors / weight of harvested tumors: after 9 weeks of treatment, mean ± s.e.m.; for tumor incidence at day 68: conjugates 4,000 μg per kg body weight daily, estradiol as s.c. pellet
[5] = target: T1, GLP-1R; assay: GLP-1R competitive binding
[6] = Conjugate degradation analysis in human plasma; assay type: in vitro ADME; details: pH 7.4, 37 °C

T1 sequence (P43220 24-463, species assumed): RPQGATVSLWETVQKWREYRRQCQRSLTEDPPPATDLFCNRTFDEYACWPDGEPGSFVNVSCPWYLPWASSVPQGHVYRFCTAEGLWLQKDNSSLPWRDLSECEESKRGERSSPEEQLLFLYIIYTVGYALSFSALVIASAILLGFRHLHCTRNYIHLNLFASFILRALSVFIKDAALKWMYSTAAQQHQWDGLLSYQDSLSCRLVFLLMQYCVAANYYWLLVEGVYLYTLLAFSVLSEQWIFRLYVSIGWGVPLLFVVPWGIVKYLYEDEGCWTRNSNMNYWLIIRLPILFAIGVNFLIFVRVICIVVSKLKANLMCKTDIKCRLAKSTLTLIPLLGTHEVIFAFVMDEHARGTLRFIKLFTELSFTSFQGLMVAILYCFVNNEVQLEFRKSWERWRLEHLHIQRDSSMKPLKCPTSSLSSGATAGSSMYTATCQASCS

EC50 ([3]; read-out: EC50, intracellular estrogen activity (ERE-mediated transcriptional activity), mean ± s.d.) [pM] | SMILES | body weight loss ([1]; 400 μg per kg body weight daily s.c., 14 d (Fig. 5d)) [%] | fold lower GLP-1R potency in presence of plasma ([2]; 20% human plasma versus no plasma) | volume of harvested tumors [4] | weight of harvested tumors [4] [mg] | tumor incidence at day 68 [4] [%] | GLP-1R binding affinity (IC50) compared to parent peptide [5] | intracellular estrogen activity compared to estrone ([3]; cells do not express GLP-1R) | decrease in body weight ([1]; 400 μg per kg body weight daily s.c., 2 weeks) [%] | body weight at end of treatment ([1]; 400 μg per kg body weight daily s.c., 2 weeks, mean ± s.e.m.) [g] | body weight at start of treatment ([1]; 400 μg per kg body weight, mean ± s.e.m.) [g] | GLP-1R biochemical signaling potency (EC50) compared to parent peptide [2] | time to complete degradation with release of estrogen [6] [h]
 | CCCCCCCCCCCCCCCC(=O)N[C@@H](CCC(=O)N[C@@H](CCC(=O)NCCCC[C@H](NC(=O)[C@H](CO)NC(=O)[C@@H]1CCCN1C(=O)[C@@H]1CCCN1C(=O)[C@@H]1CCCN1C(=O)[C@H](C)NC(=O)CNC(=O)[C@H](CO)NC(=O)[C@H](CO)NC(=O)[C@@H]1CCCN1C(=O)CNC(=O)CNC(=O)[C@H](CCCCN)NC(=O)[C@@H](NC(=O)[C@H](CC(C)C)NC(=O)[C@H](Cc1c[nH]c2ccccc12)NC(=O)[C@H](C)NC(=O)[C@@H](NC(=O)[C@H](Cc1ccccc1)NC(=O)[C@H](CCC(=O)O)NC(=O)[C@H](CCCCN)NC(=O)[C@H](C)NC(=O)[C@H](C)NC(=O)[C@H](CCC(N)=O)NC(=O)[C@H](CCC(=O)O)NC(=O)[C@H](CCC(=O)O)NC(=O)[C@H](CC(C)C)NC(=O)[C@H](Cc1ccc(O)cc1)NC(=O)[C@H](CO)NC(=O)[C@H](CO)NC(=O)[C@@H](NC(=O)[C@H](CC(=O)O)NC(=O)[C@H](CO)NC(=O)[C@@H](NC(=O)[C@H](Cc1ccccc1)NC(=O)[C@@H](NC(=O)CNC(=O)[C@H](CCC(=O)O)NC(=O)C(C)(C)NC(=O)[C@@H](N)Cc1c[nH]cn1)[C@@H](C)O)[C@@H](C)O)C(C)C)[C@@H](C)CC)C(C)C)C(N)=O)C(=O)O)C(=O)O [acylated GLP-1 analog] | 30.1 | ~ 400 fold |  |  |  |  |  |  |  |  |  | 
4 ± 1 | C[C@]12CC[C@@H]3c4ccc(O)cc4CC[C@H]3[C@@H]1CC[C@@H]2O [estradiol, 17β-estradiol, reference compound] |  |  | 1,461.2 ± 584.3 mm^3 | 779.7 ± 257.7 | 100 |  |  |  |  |  |  | 
 | CC[C@H](C)[C@H](NC(=O)[C@H](Cc1ccccc1)NC(=O)[C@H](CCC(=O)O)NC(=O)[C@H](CCCCN)NC(=O)[C@H](C)NC(=O)[C@H](C)NC(=O)[C@H](CCC(N)=O)NC(=O)[C@H](CCC(=O)O)NC(=O)[C@H](CCC(=O)O)NC(=O)[C@H](CC(C)C)NC(=O)[C@H](Cc1ccc(O)cc1)NC(=O)[C@H](CO)NC(=O)[C@H](CO)NC(=O)[C@@H](NC(=O)[C@H](CC(=O)O)NC(=O)[C@H](CO)NC(=O)[C@@H](NC(=O)[C@H](Cc1ccccc1)NC(=O)[C@@H](NC(=O)CNC(=O)[C@H](CCC(=O)O)NC(=O)C(C)(C)NC(=O)[C@@H](N)Cc1c[nH]cn1)[C@@H](C)O)[C@@H](C)O)C(C)C)C(=O)N[C@@H](C)C(=O)N[C@@H](Cc1c[nH]c2ccccc12)C(=O)N[C@@H](CC(C)C)C(=O)N[C@H](C(=O)N[C@@H](CCCCN)C(=O)NCC(=O)NCC(=O)N1CCC[C@H]1C(=O)N[C@@H](CO)C(=O)N[C@@H](CO)C(=O)NCC(=O)N[C@@H](C)C(=O)N1CCC[C@H]1C(=O)N1CCC[C@H]1C(=O)N1CCC[C@H]1C(=O)N[C@@H](CO)C(=O)N[C@@H](CCCCNC(=O)CCC(=O)Oc1ccc2c(c1)CC[C@@H]1[C@@H]2CC[C@]2(C)C(=O)CC[C@@H]12)C(N)=O)C(C)C [labile GLP-1–estrogen conjugate] |  |  | 92.1 ± 23.8 mm^3 | 37.0 ± 9.0 | 100 | matched the parent peptides | comparable intracellular estrogen activity to estrone | 7.5 | 50.0 ± 1.1 | 54.1 ± 0.9 | matched the parent peptides | ≤ 6

From PMC3757949 (Nature medicine, 2012)
